# Data: patent publication US20030096237A1, “Determination of the ability of patients to respond to a tumor treatment” (priority 2000, published 2003)
# Assays:
# Assay type in all cases: cell-based, human
# [1] = system: CNCM I-2545 and CNCM I-2546; assay: oligonucleotide array analysis, clustering of genes by mode of regulation; settings: 1st symbol CNCM I-2545, 2nd CNCM I-2546
# Method: (§1) All these cell lines were cultured in RPMI medium supplemented with 10% FCS, glutamine (2 mM), sodium pyruvate (1 mM), non-essential amino acids and HEPES buffer (10 mM) (all from GIBCO Life Sciences, Paisley, UK). When confluent, the cells were passaged by trypsinization.
# Cultured melanoma cells were harvested by scraping and total cellular RNA was extracted. 10 μg from each sample were used directly as templates for cDNA synthesis using a commercial kit (Roche Molecular Biochemicals, Rotkreuz, Switzerland). The T7 promoter sequence incorporated into the cDNA synthesis primer allowed template amplification and biotin labeling by in vitro transcription using a commercial kit (Affymetrix, Santa Clara, Calif.). After alkaline heat fragmentation […] was hybridised to the array (Affymetrix, Santa Clara, Calif.) and all subsequent steps were performed following standard procedures as supplied with the arrays. Raw data were collected with a confocal laser scanner (Hewlett Packard, Palo Alto, Calif.) using GeneChip software v3.1 (Affymetrix, Santa Clara, Calif.).
# Raw data were normalized based on the total chip signal obtained upon hybridisation of ME15 cell line cDNA. This array was selected because: i) the 5′/3′ intensity ratio of control genes was smaller than 3; ii)>25% of the genes are called “present” by Genechip; iii) the image appearance is homogeneous with low background and no sign of mechanical chip damage.
# The normalized average difference (nAD) between the signals of the perfect and of the mismatch probesets for each gene was used as the expression level of a given gene. At least one nAD value in a pairwise comparison of data has to exceed 50 to be included. Based on nAD, change factors related to IFN-α exposure were also calculated. Negative nAD values were set to 20 in order to avoid the calculation of artificially high modifications. In order to exclude artefacts, only genes with robust change factors, greater than 2-fold, were included in the analysis. […] Genes were clustered according to their mode of regulation.
# Patterns of genes expressed in IFN-α sensitive and resistant melanoma cell lines were investigated upon 48 hour culture in the presence of IFN-α. CNCM I-2546 and CNCM I-2545 were studied in detail.
# In Table 2 below, CNCM I-2546 and CNCM I-2545 cultured for 48 hours in the absence or in the presence of 100 U/ml IFN-α were used to assay cytokine modulated gene expression as matched with data obtained in fibrosarcoma cells. This analysis yielded six clusters of genes. […] Data are presented as average difference of signal intensity between match and mismatch probesets.
# In Table 3 below, CNCM I-2546 and CNCM I-2545 cell lines cultured for 48 hours in the absence or in the presence of 100 U/ml IFN-α were used to identify novel cytokine induced genes whose expression was not found to be modulated in fibrosarcoma cells. Cluster 1 includes genes inducible in the CNCM I-2546 sensitive but not in the CNCM I-2545 resistant cell line. Cluster 2 comprises genes inducible in both lines. Data are presented as average difference of signal intensity between match and mismatch probesets.
# [2] = system: CNCM I-2544; assay: HLA class I induction, flow-cytometry; settings: two days with IFN-α 100 U/ml, absence 305
# Method: (§2) Melanoma cell lines were screened for their sensitivity to proliferation inhibition and HLA class I induction. The study was done of six cell lines (CNCM I-2544, CNCM I-2545, CNCM I-2546, CNCM I-2547, CNCM I-2548 and CNCM I-2549).
# as §1
# (§3) A number of established melanoma cell lines were assayed for their sensitivity to IFN-α by testing the capacity of IFN-α to inhibit their proliferation and to increase their surface expression of HLA class I determinants.
# [3] = system: CNCM I-2547; assay: proliferation inhibition, 3H-Thymidine incorporation; settings: concentration inducing at least 50% inhibition of maximal proliferation
# Method: as §2, §1, §3
# [4] = system: CNCM I-2548; assay: as above; settings: concentration inducing at least 50% inhibition of maximal proliferation
# Method: as §2, §1, §3
# [5] = system: CNCM I-2544; assay: as above; settings: concentration inducing at least 50% inhibition of maximal proliferation
# Method: as §2, §1, §3
# [6] = system: CNCM I-2546; assay: as above; settings: concentration inducing at least 50% inhibition of maximal proliferation
# Method: as §2, §1, §3
substance,measurement,setting,value
IFN-α,cluster's characteristics D28137 bst-2,[1]; Cluster 1,˜u
same,cluster's characteristics D49824 hla-b null allele,[1]; Cluster 1,˜u
same,"cluster's characteristics HG658 major histocompatibility complex, class 1 c",[1]; Cluster 1,˜u
same,"cluster's characteristics HG2917 major histocompatibility complex, class i, e",[1]; Cluster 1,˜u
same,cluster's characteristics J00105 beta-2 microglobulin gene,[1]; Cluster 1,˜u
same,cluster's characteristics J04164 interferon-inducible protein 27-sep,[1]; Cluster 1,˜u
same,cluster's characteristics M13755 interferon-induced 17-kda/15-kda protein,[1]; Cluster 1,˜u
same,"cluster's characteristics M19650 2′,3′-cyclic nucleotide 3prime-phosphodiesterase",[1]; Cluster 1,˜u
same,cluster's characteristics M94880 mhc class i (hla-a*8001),[1]; Cluster 1,˜u
same,"cluster's characteristics U22970 16-jun gene, interferon-inducible peptide (6-16)",[1]; Cluster 1,˜u
same,cluster's characteristics U50648 interferon-inducible rna-dependent protein kinase (pkr),[1]; Cluster 1,˜u
same,cluster's characteristics U51127 interferon regulatory factor 5,[1]; Cluster 1,˜u
same,cluster's characteristics X02874 2-5A synthetase (1.6 kb),[1]; Cluster 1,˜u
same,cluster's characteristics X07730 prostate specific antigen,[1]; Cluster 1,˜u
same,cluster's characteristics X57351 1-8d gene from interferon-inducible gene family,[1]; Cluster 1,˜u
same,cluster's characteristics X57522 ring4 cdna,[1]; Cluster 1,˜u
same,cluster's characteristics X67325 p27,[1]; Cluster 1,˜u
same,cluster's characteristics X96401 rox protein,[1]; Cluster 1,˜u
same,cluster's characteristics Z56281 interferon regulatory factor 3,[1]; Cluster 1,˜u
same,cluster's characteristics M98343 amplaxin (ems1),[1]; Cluster2,uu
same,cluster's characteristics J03909 gamma-interferon-inducible protein (ip-30),[1]; Cluster3,u˜
same,cluster's characteristics M92642 alpha-1 type xvi collagen (col16a1),[1]; Cluster3,u˜
same,cluster's characteristics U41515 dss1,[1]; Cluster3,u˜
same,cluster's characteristics L40387 thyroid receptor interactor (trip14),[1]; Cluster4,du
same,cluster's characteristics M97935 transcription factor isgf-3,[1]; Cluster4,du
same,cluster's characteristics U01824 glutamate/aspartate transporter,[1]; Cluster4,du
same,cluster's characteristics U53830 interferon regulatory factor 7a,[1]; Cluster4,du
same,cluster's characteristics U72882 interferon-induced leucine zipper protein (ifp35),[1]; Cluster4,du
same,cluster's characteristics J00212 leukocyte interferon (ifn-alpha),[1]; Cluster 5,d˜
same,cluster's characteristics K01900 lymphocyte interferon alpha type 201,[1]; Cluster 5,d˜
same,cluster's characteristics L42243 ifnar2 gene (interferon receptor),[1]; Cluster 5,d˜
same,cluster's characteristics M79462 pml-1,[1]; Cluster 5,d˜
same,cluster's characteristics U52513 rig-g,[1]; Cluster 5,d˜
same,cluster's characteristics X90846 mixed lineage kinase 2,[1]; Cluster 5,d˜
same,cluster's characteristics M30818 interferon-induced cellular resistance mediator protein,[1]; Cluster 6,˜d
same,cluster's characteristics X15949 interferon regulatory factor-2 (irf-2),[1]; Cluster 6,˜d
same,cluster's characteristics D21235 hhr23a protein,[1]; Table 3 Cluster 1,˜u
same,cluster's characteristics D28137 bst-2,[1]; Table 3 Cluster 1,˜u
same,cluster's characteristics D32050 alanyl-trna synthetase,[1]; Table 3 Cluster 1,˜u
same,cluster's characteristics D50914 EST,[1]; Table 3 Cluster 1,˜u
same,cluster's characteristics HG1612 macmarcks,[1]; Table 3 Cluster 1,˜u
same,cluster's characteristics K03515 neuroleukin,[1]; Table 3 Cluster 1,˜u
same,cluster's characteristics L13210 mac-2 binding protein,[1]; Table 3 Cluster 1,˜u
same,cluster's characteristics L37043 casein kinase i epsilon,[1]; Table 3 Cluster 1,˜u
same,cluster's characteristics M31013 nonmuscle myosin heavy chain (nmhc),[1]; Table 3 Cluster 1,˜u
same,cluster's characteristics M34338 spermidine synthase,[1]; Table 3 Cluster 1,˜u
same,cluster's characteristics S81914 iex-1 = radiation-inducible immediate-early gene,[1]; Table 3 Cluster 1,˜u
same,cluster's characteristics U09579 melanoma differentiation associated (mda-6),[1]; Table 3 Cluster 1,˜u
same,cluster's characteristics U18009 chromosome 17q21 clone lf113,[1]; Table 3 Cluster 1,˜u
same,cluster's characteristics U18018 ela enhancer binding protein (ela-f),[1]; Table 3 Cluster 1,˜u
same,cluster's characteristics U47025 fetal brain glycogen phosphorylase b,[1]; Table 3 Cluster 1,˜u
same,cluster's characteristics U50327 protein kinase c substrate 80k-h gene (prkcsh),[1]; Table 3 Cluster 1,˜u
same,cluster's characteristics U61263 acetolactate synthase homolog,[1]; Table 3 Cluster 1,˜u
same,cluster's characteristics U65579 mitochondrial nadh dehydrogenase-ubiquinone,[1]; Table 3 Cluster 1,˜u
same,cluster's characteristics U65932 extracellular matrix protein 1 (ecm1),[1]; Table 3 Cluster 1,˜u
same,cluster's characteristics U69126 fuse binding protein 2 (fbp2),[1]; Table 3 Cluster 1,˜u
same,cluster's characteristics U72206 guanine nucleotide regulatory factor (lfp40),[1]; Table 3 Cluster 1,˜u
same,cluster's characteristics U91316 acyl-coa thioester hydrolase,[1]; Table 3 Cluster 1,˜u
same,cluster's characteristics X04412 plasma gelsolin,[1]; Table 3 Cluster 1,˜u
same,cluster's characteristics X76538 mpv17,[1]; Table 3 Cluster 1,˜u
same,cluster's characteristics X95325 dna binding protein a variant,[1]; Table 3 Cluster 1,˜u
same,cluster's characteristics Y00264 amyloid a4 precursor,[1]; Table 3 Cluster 1,˜u
same,cluster's characteristics Z26491 gene catechol o-methyltransferase,[1]; Table 3 Cluster 1,˜u
same,"cluster's characteristics D78132 rheb gene, ras-related gtp binding protein gene",[1]; Table 3 Cluster 2,uu
same,cluster's characteristics J04182 lysosomal membrane glycoprotein-1 (lamp1),[1]; Table 3 Cluster 2,uu
same,cluster's characteristics J04444 cytochrome c-1 gene,[1]; Table 3 Cluster 2,uu
same,cluster's characteristics L07633 interferon-gamma,[1]; Table 3 Cluster 2,uu
same,"cluster's characteristics L35249 vacuolar h + -atpase mr 56,000 subunit (ho57)",[1]; Table 3 Cluster 2,uu
same,cluster's characteristics M60784 ul snrnp-specific protein,[1]; Table 3 Cluster 2,uu
same,cluster's characteristics M65028 heterogeneous nuclear ribonucleoprotein a/b,[1]; Table 3 Cluster 2,uu
same,cluster's characteristics U70063 human acid ceramidase,[1]; Table 3 Cluster 2,uu
same,cluster's characteristics U78525 human eukaryotic translation initiation factor (eif3),[1]; Table 3 Cluster 2,uu
same,"cluster's characteristics X70848 protein phosphatase 1, catalytic subunit",[1]; Table 3 Cluster 2,uu
same,cluster's characteristics Z47055 farnesyl pyrophosphate synthetase like,[1]; Table 3 Cluster 2,uu
same,"HLA class I induction, mean fluorescence intensity",[2],(442 vs. 305)
same,proliferation inhibition (IC50),[3],10 U/ml
same,proliferation inhibition (IC50),[4],10 U/ml
same,proliferation inhibition (IC50),[5],100 U/ml
same,proliferation inhibition (IC50),[6],100 U/ml
